According to ChEMBL document CHEMBL3351824, “Synthesis and biological evaluation of novel tacrine derivatives and tacrine-coumarin hybrids as cholinesterase inhibitors” (J Med Chem, 2014):

Key:
Acetylcholinesterase [1] = target: T1, Acetylcholinesterase (Homo sapiens, UniProt P22303)
Description: Inhibition of human recombinant AChE pre-incubated for 5 mins before acetylthiocholine substrate addition by Ellman's method

Cholinesterase = Cholinesterase (Homo sapiens, UniProt P06276)
Description: Inhibition of human BuChE pre-incubated for 5 mins before butylthiocholine substrate addition by Ellman's method

Acetylcholinesterase [2] = target: T1, Acetylcholinesterase; remark: listed apart in the source
Description: Inhibition of human recombinant AChE assessed as dissociation constant for enzyme-inhibitor complex by Lineweaver-Burk plot

Acetylcholinesterase [3] = target: T1, Acetylcholinesterase; remark: listed apart in the source
Description: Inhibition of human recombinant AChE assessed as dissociation constant for enzyme-inhibitor-substrate complex by Lineweaver-Burk plot

T1 sequence (P22303 whole entry): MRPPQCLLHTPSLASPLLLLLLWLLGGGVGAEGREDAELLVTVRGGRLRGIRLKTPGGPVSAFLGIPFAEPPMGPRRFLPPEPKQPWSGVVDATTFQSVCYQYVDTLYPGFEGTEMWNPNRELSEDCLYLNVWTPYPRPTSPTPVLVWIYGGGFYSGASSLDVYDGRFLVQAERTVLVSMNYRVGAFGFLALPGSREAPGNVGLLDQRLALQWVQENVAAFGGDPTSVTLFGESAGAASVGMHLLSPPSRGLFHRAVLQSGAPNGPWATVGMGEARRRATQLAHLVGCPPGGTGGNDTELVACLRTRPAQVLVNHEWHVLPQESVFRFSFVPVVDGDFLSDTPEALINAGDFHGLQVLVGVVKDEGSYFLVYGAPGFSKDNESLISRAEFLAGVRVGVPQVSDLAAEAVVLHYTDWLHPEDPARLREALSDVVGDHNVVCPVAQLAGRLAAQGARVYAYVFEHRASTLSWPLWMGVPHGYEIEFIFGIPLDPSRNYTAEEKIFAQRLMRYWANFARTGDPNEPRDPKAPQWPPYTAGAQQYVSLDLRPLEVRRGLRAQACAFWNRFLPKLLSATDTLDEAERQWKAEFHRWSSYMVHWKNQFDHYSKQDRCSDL
Sequence of Cholinesterase (P06276 whole entry): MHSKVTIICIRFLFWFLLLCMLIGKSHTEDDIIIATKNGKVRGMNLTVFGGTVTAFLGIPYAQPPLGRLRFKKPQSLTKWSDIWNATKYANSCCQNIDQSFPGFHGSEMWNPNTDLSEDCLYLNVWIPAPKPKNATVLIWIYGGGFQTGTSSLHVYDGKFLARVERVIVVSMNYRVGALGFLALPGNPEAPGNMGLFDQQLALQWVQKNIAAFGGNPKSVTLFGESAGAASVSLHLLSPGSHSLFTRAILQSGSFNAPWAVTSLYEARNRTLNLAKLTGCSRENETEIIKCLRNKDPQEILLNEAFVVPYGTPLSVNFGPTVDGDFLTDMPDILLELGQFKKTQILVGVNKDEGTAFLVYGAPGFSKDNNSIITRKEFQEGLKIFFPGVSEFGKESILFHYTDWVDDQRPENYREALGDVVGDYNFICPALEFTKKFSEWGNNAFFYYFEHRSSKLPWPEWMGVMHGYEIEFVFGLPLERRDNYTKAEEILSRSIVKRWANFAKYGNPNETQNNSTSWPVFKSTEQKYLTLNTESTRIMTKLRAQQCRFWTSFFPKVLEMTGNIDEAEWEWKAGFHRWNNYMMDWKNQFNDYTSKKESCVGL

Row | SMILES | IC50 (Acetylcholinesterase [1]) [nM] | IC50 (Cholinesterase) [nM] | Ki (Acetylcholinesterase [2]) [nM] | Ki (Acetylcholinesterase [3]) [nM]
1 | CCN(CCC(=O)NCCNc1c2c(nc3ccccc13)CCCC2)C1CCCCC1 | 233 | 765 | – | –
2 | CCN(CCC(=O)NCCCNc1c2c(nc3ccccc13)CCCC2)C1CCCCC1 | 26.3 | 267 | 80.4 | 78.9
3 | CCN(CCC(=O)NCCCCNc1c2c(nc3ccccc13)CCCC2)C1CCCCC1 | 94.2 | 228 | 199 | 328
4 | CN(CCC(=O)NCCNc1c2c(nc3ccccc13)CCCC2)C1CCCCC1 | 580 | 2030 | – | –
5 | CN(CCC(=O)NCCCNc1c2c(nc3ccccc13)CCCC2)C1CCCCC1 | 398 | 2380 | – | –
6 | CN(CCC(=O)NCCCCNc1c2c(nc3ccccc13)CCCC2)C1CCCCC1 | 104 | 2230 | – | –
7 | O=C(Cc1cc(=O)oc2cc(O)ccc12)NCCNc1c2c(nc3ccccc13)CCCC2 | 2910 | 12600 | – | –
8 | O=C(Cc1cc(=O)oc2cc(O)ccc12)NCCCNc1c2c(nc3ccccc13)CCCC2 | 277 | 827 | – | –
9 | O=C(Cc1cc(=O)oc2cc(O)ccc12)NCCCCNc1c2c(nc3ccccc13)CCCC2 | 15.4 | 328 | 4.1 | 23.4
10 | O=C(Cc1cc(=O)oc2cc(O)ccc12)NNC(=S)Nc1c2c(nc3ccccc13)CCCC2 | 8170 | 1420 | 1940 | 92800
11 | O=C(Cc1cc(=O)oc2cc(O)ccc12)N/N=C1\SCC(=O)N1c1c2c(nc3ccccc13)CCCC2 | 15700 | 5620 | 2360 | 65300
